The source of these data is publication PMC3382786, “Anti-Hyperglycemic Effect of Chebulagic Acid from the Fruits of Terminalia chebula Retz” (International Journal of Molecular Sciences, 2012).

Molecules are shown by their SMILES. Converted amounts (≈) assume the structure as drawn.

Broadly, the IC50 is the midpoint of a concentration-inhibition curve. Broadly, the % inhibition is the percentage by which the read-out fell short of the control.

In assay [1] the target is T1, rat intestinal α-glucosidase (maltase activity).
T1 construct: gene Mgam; crude native enzyme solution from rat intestinal acetone powder (Sigma-Aldrich); maltose hydrolysis; not purified
In words: maltose hydrolysis, liberated glucose by glucose oxidase. The assay is classed as biochemical. The conditions noted are these: maltose 3.5 mM stock (0.35 of 0.5 mL); 0.1 M potassium phosphate pH 6.3; 37 °C, 15 min; crude enzyme.

Assay [2] relates to T2, Caco-2 maltase (maltose-hydrolysis activity of α-glucosidase).
T2 construct: gene SI; native enzyme on the apical side of differentiated Caco-2 monolayer
In words: maltose hydrolysis on Caco-2 monolayer, liberated glucose by glucose oxidase. The assay is classed as cell-based, Homo sapiens. The conditions noted are these: 28 mM maltose in PBS; 37 °C, 2 h; reversible.

For `O=C(O)C[C@@H]1C(=O)O[C@H]2[C@@H]3OC(=O)c4cc(O)c(O)c(O)c4-c4c(cc(O)c(O)c4O)C(=O)OC[C@H]2O[C@@H](OC(=O)c2cc(O)c(O)c(O)c2)[C@@H]3OC(=O)c2cc(O)c(O)c3c2[C@H]1[C@H](O)C(=O)O3` [chebulagic acid], the IC50 in assay [1] stood at 37 µg/mL (≈ 38.8 µM). The “% inhibition at 0.5 mM/well” value in assay [2] is on record as 73%.
